Test in all cases: growth of human tumour cells (NCI), 48 h
Assay [1] deals with LOX IMVI melanoma.
Assay [2] concerns DMS 114 small cell lung.
The test system of assay [3] is SF-268 CNS.
For assay [4], the system named is K-562 leukemia.
The subject of assay [5] is NCI-H460 lung.
Assay [6] has as its system IGROV1 ovarian.
In assay [7] the test system is SNB-78 CNS.
Assay [8] concerns 786-0 renal.
In assay [9] the test system is DU-145 prostate.
For assay [10], the system named is HS 578T breast.

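Where inhibition never reached the appropriate level, the endpoint shown equals the highest concentration tested. Otherwise, values were interpolated linearly from a five-concentration, 48-hour dose response in 96-well plates. GI50 is the concentration that inhibits growth by half. Definition used: TGI = concentration required for complete inhibition of growth.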 A value given as a limit tells only on which side of the number the result lay.

In the case of `[F][Sn]([F])([c]1ccccc1)[c]1ccccc1`, the GI50 in assay [1] is 1.7 µM; in [2], 2 µM; in [3] it was 1.84 µM; in assay [4], 0.702 µM; in assay [5] it was 2.27 µM; in [6] it was 1.84 µM. Moreover, the values for the GI50 in assay [7] and in [8] were 3.18 µM and 1.57 µM, respectively. Also, the TGI in assay [1] is 3.29 µM; in assay [2] it was 5.8 µM; in assay [3] it was 3.78 µM; in assay [4] it was 4.96 µM; in [5] it was 4.97 µM; in assay [6], 4 µM. For the same molecule, the TGI worked out at 16 µM in assay [7] and 2.98 µM in assay [8].

As for `COc1cc(C(=O)N2CCc3c([nH]c4c([N+](=O)[O-])c(OC)ccc34)C2C)cc(OC)c1OC` (configuration not stated), the TGI in [1] was above 100 µM; in assay [2], above 100 µM; in [3], above 100 µM; in assay [4], above 100 µM; in [5] it was above 100 µM; in [6] it was 22.3 µM. Moreover, the TGI in assay [7] and in assay [8] was above 100 µM in each case.

As to `COC(=O)/C(=C\c1ccc(N(CCC#N)CCC#N)cc1)NC(=O)c1cc([N+](=O)[O-])ccc1Cl`, the TGI in assay [1], in assay [2], in assay [3], in assay [4], in [5] and in assay [6] was above 100 µM each time. Moreover, the TGI in assay [7] and in assay [8] was above 100 µM throughout.

As to `CC1=C(c2cc(C(=O)Nc3ccc(Cl)cc3)nc(=S)[nH]2)Sc2ccccc2N1`, the TGI in assay [1], in [2], in assay [3], in assay [4], in assay [5] and in assay [6] was above 100 µM each time. The TGI in assay [7] and in assay [8] was above 100 µM throughout.

`C/C(CCn1[nH]c(=O)ccc1=O)=N\OCCCc1ccccc1`: the TGI in assay [1], in assay [2], in assay [3], in assay [4], in [5] and in assay [6] was above 100 µM throughout. The TGI in [7] and in assay [8] was above 100 µM throughout.

Turning to `Cc1cc(C(C)(C)C)cc(Cc2cc(C(C)(C)C)cc(Cc3cc(C(C)(C)C)cc(C)c3O)c2O)c1O`, the TGI was 21 µM in assay [1]; 12.1 µM in assay [2]; 12.2 µM in assay [3]; 16.4 µM in [4]; 21.8 µM in assay [5]; 23.5 µM in assay [6]. For the same molecule, the TGI in assay [7] worked out at 17.9 µM; in [8], 18.6 µM.

As for `CCN(CC)CCNC(=O)c1ccc(C)c(OCc2ccccc2)c1[N+](=O)[O-]`, the TGI was 49.9 µM in [1]; above 65.7 µM in assay [2]; above 100 µM in [3]; 49.2 µM in [4]; above 100 µM in assay [9]; above 100 µM in assay [5]. The TGI in [10] was above 63.6 µM; in assay [6], above 100 µM; in [7], above 100 µM; in [8], above 74.6 µM.

With `CC1=C(C(=O)NNS(=O)(=O)c2ccc(C)cc2)CC(C(=O)NNS(=O)(=O)c2ccc(C)cc2)=C(C)N1`, the TGI in [1], in assay [2], in assay [3], in [4], in assay [5] and in assay [6] was above 100 µM in each case. Besides, the TGI in assay [7] and in assay [8] was above 100 µM each time.

With `CC(C)(C)OC(=O)N1N=NC2C1C1CC(OCc3ccccc3)(OCc3ccccc3)C2O1` (configuration not stated), the TGI in [1] is 33.7 µM; in assay [2] it was 40.6 µM; in assay [3] it was above 100 µM; in assay [4] it was 63.6 µM; in [5] it was above 100 µM; in assay [6], above 100 µM. Further, the TGI in assay [7] and in assay [8] was above 100 µM throughout.

For `O=C1C(=O)N(c2cc(Cl)ccc2Cl)C(=O)C(=O)C1c1nc2ccccc2o1`, the TGI in assay [1], in assay [2], in assay [3], in assay [4], in [5] and in [6] was above 100 µM throughout. Moreover, the TGI in assay [7] and in assay [8] was above 100 µM each time.

Turning to `CCOC(=O)/C(=C/c1cccc(C#N)c1)N(CC)CC`, the TGI in [1], in assay [2], in [3], in assay [4], in assay [5] and in [6] was above 100 µM in each case. Also, the TGI in assay [7] and in assay [8] was above 100 µM throughout.

As to `Oc1ccc(Br)cc1C=Nc1ccc(N=Cc2cc(Br)ccc2O)cc1`, the TGI in assay [1], in assay [2], in [3], in [4], in assay [5] and in [6] was above 100 µM throughout. Further, the TGI in assay [7] and in assay [8] was above 100 µM in each case.

`CC1CN1c1c(C(=O)/C=C/c2ccc(Cl)cc2)c(-c2ccccc2)nn(C)c1=O` (configuration not stated): the TGI in [1] was 4.17 µM; in [2], above 10 µM; in assay [3], above 10 µM; in [4], 8.8 µM; in assay [5] it was 4.12 µM; in assay [6], 8.68 µM. Further, the TGI is 5.17 µM in assay [7] and 8.95 µM in assay [8].

Turning to `COC(=O)c1cccc2cccc(C(=O)Nc3ccc(Cl)cc3)c12`, the TGI in assay [1] was above 100 µM; in assay [2], above 100 µM; in assay [3], above 100 µM; in [4], above 33 µM; in assay [5] it was above 100 µM; in assay [6], above 100 µM. In addition, the TGI in [7] and in assay [8] was above 100 µM in each case.

Values taken from PubChem BioAssay (NCI).
